Experimental data from ChEMBL document CHEMBL1141080, “Discovery of potent orally active thrombin receptor (protease activated receptor 1) antagonists as novel antithrombotic agents” (J Med Chem, 2005).
pIC50: −log10 of the molar value.

Experiments:
[1] = Maximum plasma concentration after oral administration to rats in 20% hydroxypropyl-beta-cyclodextrin after 4 hours; conditions: rat
[2] = Area under curve after oral administration to rats in 20% hydroxypropyl-beta-cyclodextrin after 4 hours; conditions: rat, in vivo
[3] = molecular target: T1, Proteinase-activated receptor 1 (Homo sapiens, UniProt P25116)
T1 sequence (P25116 whole entry): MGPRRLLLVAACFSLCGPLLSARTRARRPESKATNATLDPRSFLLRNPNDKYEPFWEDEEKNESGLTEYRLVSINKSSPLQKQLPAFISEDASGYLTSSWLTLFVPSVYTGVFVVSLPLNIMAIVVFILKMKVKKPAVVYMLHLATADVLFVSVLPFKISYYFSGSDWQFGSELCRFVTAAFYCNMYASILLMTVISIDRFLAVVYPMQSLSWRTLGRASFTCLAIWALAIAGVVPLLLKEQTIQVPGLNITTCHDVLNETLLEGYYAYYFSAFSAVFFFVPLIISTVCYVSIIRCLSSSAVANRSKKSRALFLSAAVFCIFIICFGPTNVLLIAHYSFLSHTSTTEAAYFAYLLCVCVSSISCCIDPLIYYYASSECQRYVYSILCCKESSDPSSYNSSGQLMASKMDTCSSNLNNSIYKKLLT
Description: (§1) In vitro inhibitory concentration against human protease activated receptor 1 using [3H]-haTRAP as radioligand

[4] = Half life of compound upon iv administration in rat; format: ADME, organism-based; conditions: in vivo
[5] = Bioavailability of compound upon oral administration in rat; format: ADME, organism-based; conditions: in vivo
[6] = Bioavailability of compound after oral administration in rat at a dose of 10 mg/kg; format: ADME, organism-based; conditions: in vivo
[7] = Bioavailability of compound after oral administration in monkey; conditions: cercopithecidae, in vivo
[8] = Half life after intravenous administration in monkey; format: ADME, organism-based; conditions: cercopithecidae, in vivo
[9] = Half life upon intravenous administration in rat; format: ADME, organism-based; conditions: in vivo
[10] = Maximum plasma concentration upon oral administration in rat
[11] = molecular target: T1, Proteinase-activated receptor 1; remark: listed apart in the source
Description: as §1

Row | Structure (SMILES) | pIC50 [3] | other results
1 | C[C@H]1OC(=O)[C@@H]2C[C@@H]3CCCC[C@H]3[C@H](/C=C/c3ccc(-c4ccccc4)cn3)[C@H]12 | 7.57 | Cmax [1]: 453 nM; AUC at 4 h [2]: 0.917 µM·h
2 | CC(C)c1cccc(-c2ccc(/C=C/[C@H]3[C@@H]4CCCC[C@H]4C[C@H]4C(=O)O[C@H](C)[C@@H]34)nc2)c1 | 7.72 | Cmax [1]: 289 nM; AUC at 4 h [2]: 0.258 µM·h
3 | CCc1cccc(/C=C/[C@H]2[C@@H]3CCCC[C@H]3C[C@H]3C(=O)O[C@H](C)[C@@H]23)n1 |  | half-life [4]: < 1 h; bioavailability [5]: < 3%
4 | C[C@H]1OC(=O)[C@@H]2C[C@@H]3CCCC[C@H]3[C@H](/C=C/c3ccc(-c4cccc(F)c4)cn3)[C@H]12 | 7.46 | Cmax [1]: 1520 nM; AUC at 4 h [2]: 3.55 µM·h
5 | C[C@H]1OC(=O)[C@@H]2C[C@@H]3CCCC[C@H]3[C@H](/C=C/c3ccc(-c4ccccc4F)cn3)[C@H]12 | 7.66 | Cmax [1]: 1080 nM; AUC at 4 h [2]: 2.47 µM·h
6 | COc1ccccc1-c1ccc(/C=C/[C@H]2[C@@H]3CCCC[C@H]3C[C@H]3C(=O)O[C@H](C)[C@@H]23)nc1 | 7.96 | Cmax [1]: 419 nM; AUC at 4 h [2]: 0.413 µM·h
7 | C[C@H]1OC(=O)[C@@H]2C[C@@H]3CCCC[C@H]3[C@H](/C=C/c3ccc(-c4cccc(C(F)(F)F)c4)cn3)[C@H]12 |  | Cmax [1]: 2300 nM; bioavailability [6]: 30%; bioavailability [7]: 50%; AUC at 4 h [2]: 6.12 µM·h; half-life [8]: 12.4 h; half-life [9]: 3.2 h; Cmax [10]: 1160 nM
8 | C[C@H]1OC(=O)[C@@H]2C[C@@H]3CCCC[C@H]3[C@H](/C=C/c3ccc(-c4ccccc4C(F)(F)F)cn3)[C@H]12 | 7.34 | Cmax [1]: 1000 nM; AUC at 4 h [2]: 2.35 µM·h
9 | COc1cccc(-c2ccc(/C=C/[C@H]3[C@@H]4CCCC[C@H]4C[C@H]4C(=O)O[C@H](C)[C@@H]34)nc2)c1 | 7.55 | Cmax [1]: 20 nM; AUC at 4 h [2]: 0.012 µM·h
10 | C[C@H]1OC(=O)[C@@H]2C[C@@H]3CCCC[C@H]3[C@H](/C=C/c3ccc(-c4ccccc4Cl)cn3)[C@H]12 | 7.59 | Cmax [1]: 1780 nM; AUC at 4 h [2]: 4.29 µM·h
11 | CCOC(=O)c1ccccc1-c1ccc(/C=C/[C@H]2[C@@H]3CCCC[C@H]3C[C@H]3C(=O)O[C@H](C)[C@@H]23)nc1 | 7.36 | 
12 | Cc1ccccc1-c1ccc(/C=C/[C@H]2[C@@H]3CCCC[C@H]3C[C@H]3C(=O)O[C@H](C)[C@@H]23)nc1 |  | Cmax [1]: 1220 nM; AUC at 4 h [2]: 2.81 µM·h
13 | COc1ccc(/C=C/[C@H]2[C@@H]3CCCC[C@H]3C[C@H]3C(=O)O[C@H](C)[C@@H]23)nc1 (racemic) | 6.49 | 
14 | C[C@H]1OC(=O)[C@@H]2C[C@@H]3CCCC[C@H]3[C@H](/C=C/c3ccccn3)[C@H]12 (racemic) | 5.40 | 
15 | COCc1cccc(/C=C/[C@H]2[C@@H]3CCCC[C@H]3C[C@H]3C(=O)O[C@H](C)[C@@H]23)n1 (racemic) | 6.07 | 
16 | CNc1cccc(/C=C/[C@H]2[C@@H]3CCCC[C@H]3C[C@H]3C(=O)O[C@H](C)[C@@H]23)n1 (racemic) | 5.90 | 
17 | COc1ccc(-c2ccc(/C=C/[C@H]3[C@@H]4CCCC[C@H]4C[C@H]4C(=O)O[C@H](C)[C@@H]34)nc2)cc1 (racemic) | 6.69 | 
18 | Cc1ccc(/C=C/[C@H]2[C@@H]3CCCC[C@H]3C[C@H]3C(=O)O[C@H](C)[C@@H]23)nc1 (racemic) | 5.96 | 
19 | C[C@H]1OC(=O)[C@@H]2C[C@@H]3CCCC[C@H]3[C@H](/C=C/c3cccc(C4CC4)n3)[C@H]12 (racemic) | 6.68 | 
20 | CCCc1cccc(/C=C/[C@H]2[C@@H]3CCCC[C@H]3C[C@H]3C(=O)O[C@H](C)[C@@H]23)n1 (racemic) | 6.60 | 
21 | Cc1cccnc1/C=C/[C@H]1[C@@H]2CCCC[C@H]2C[C@H]2C(=O)O[C@H](C)[C@@H]12 (racemic) | < 5.30 | 
22 | Cc1ccnc(/C=C/[C@H]2[C@@H]3CCCC[C@H]3C[C@H]3C(=O)O[C@H](C)[C@@H]23)c1 (racemic) | 5.68 | 
23 | COc1cccc(/C=C/[C@H]2[C@@H]3CCCC[C@H]3C[C@H]3C(=O)O[C@H](C)[C@@H]23)n1 (racemic) |  | IC50 [11]: Not Active
24 | C[C@H]1OC(=O)[C@@H]2C[C@@H]3CCCC[C@H]3[C@H](/C=C/c3cccc(-c4ccccc4)n3)[C@H]12 (racemic) |  | IC50 [11]: Not Active
25 | CCCCCCc1cccc(/C=C/[C@H]2[C@@H]3CCCC[C@H]3C[C@H]3C(=O)O[C@H](C)[C@@H]23)n1 (racemic) | 5.46 | 

The next lines start with results.

Row | pIC50 [3] | Structure (SMILES) | other results
26 | 7.00 | C[C@H]1OC(=O)[C@@H]2C[C@@H]3CCCC[C@H]3[C@H](/C=C/c3ccc(-c4cccc(S(N)(=O)=O)c4)cn3)[C@H]12 | 
27 | 7.89 | Cc1cccc(-c2ccc(/C=C/[C@H]3[C@@H]4CCCC[C@H]4C[C@H]4C(=O)O[C@H](C)[C@@H]34)nc2)c1 | Cmax [1]: 380 nM; AUC at 4 h [2]: 0.331 µM·h
28 | 7.60 | C[C@H]1OC(=O)[C@@H]2C[C@@H]3CCCC[C@H]3[C@H](/C=C/c3ccc(-c4cccc(Br)c4)cn3)[C@H]12 | 
29 | 8.00 | C[C@H]1OC(=O)[C@@H]2C[C@@H]3CCCC[C@H]3[C@H](/C=C/c3ccc(-c4cccc(Cl)c4)cn3)[C@H]12 | Cmax [1]: 1460 nM; AUC at 4 h [2]: 4.11 µM·h
30 | 7.60 | C[C@H]1OC(=O)[C@@H]2C[C@@H]3CCCC[C@H]3[C@H](/C=C/c3ccc(-c4cccc(C#N)c4)cn3)[C@H]12 | 
31 | 6.49 | Cc1ccc(-c2ccc(/C=C/[C@H]3[C@@H]4CCCC[C@H]4C[C@H]4C(=O)O[C@H](C)[C@@H]34)nc2)cc1 (racemic) | 
32 | 6.84 | CCCCc1cccc(/C=C/[C@H]2[C@@H]3CCCC[C@H]3C[C@H]3C(=O)O[C@H](C)[C@@H]23)n1 (racemic) | 
33 | 5.43 | C[C@H]1OC(=O)[C@@H]2C[C@@H]3CCCC[C@H]3[C@H](/C=C/c3ccc(Cc4ccccc4)cn3)[C@H]12 (racemic) | 
34 | 5.82 | C[C@H]1OC(=O)[C@@H]2C[C@@H]3CCCC[C@H]3[C@H](/C=C/c3cccc(CO)n3)[C@H]12 (racemic) | 
35 | 6.05 | C[C@H]1OC(=O)[C@@H]2C[C@@H]3CCCC[C@H]3[C@H](/C=C/c3cccc(Cc4ccccc4)n3)[C@H]12 (racemic) | 
36 | 6.82 | C=Cc1cccc(/C=C/[C@H]2[C@@H]3CCCC[C@H]3C[C@H]3C(=O)O[C@H](C)[C@@H]23)n1 (racemic) | 
37 | 6.14 | CC(C)c1cccc(/C=C/[C@H]2[C@@H]3CCCC[C@H]3C[C@H]3C(=O)O[C@H](C)[C@@H]23)n1 (racemic) | 
38 | 6.26 | CC(C)Cc1cccc(/C=C/[C@H]2[C@@H]3CCCC[C@H]3C[C@H]3C(=O)O[C@H](C)[C@@H]23)n1 (racemic) | 
39 | 6.33 | C[C@H]1OC(=O)[C@@H]2C[C@@H]3CCCC[C@H]3[C@H](/C=C/c3ccc(-c4ccc(F)cc4)cn3)[C@H]12 (racemic) | 
40 | < 6.52 | C[C@H]1OC(=O)[C@@H]2C[C@@H]3CCCC[C@H]3[C@H](/C=C/c3ccc(-c4ccc(C(F)(F)F)cc4)cn3)[C@H]12 (racemic) | 
41 | 6.00 | C[C@H]1OC(=O)[C@@H]2C[C@@H]3CCCC[C@H]3[C@H](/C=C/c3ccc(-c4ccc(Cl)cc4)cn3)[C@H]12 (racemic) | 
42 | 7.72 | C[C@H]1OC(=O)[C@@H]2C[C@@H]3CCCC[C@H]3[C@H](/C=C/c3ccc(OCc4ccccc4)cn3)[C@H]12 (racemic) | 
